Entries after “also recorded” stand apart in the source; their conditions may differ.
Legend:
[1] = Diffusion-ordered NMR spectroscopy (DOSY) of protein/CB[7]-PEG complexes; assay type: physicochemical; details: for diffusion rate D: DOSY, protein 6 mg mL^−1, 200 mM phosphate buffer pH 7, D2O, zinc removed with EDTA; for hydrodynamic radius (Rh): approximated from D by the Stokes-Einstein relationship
Excerpt: A Varian Inova 600 MHz NMR instrument was used to acquire the data. Magnetic field strengths ranging from 2 to 57 G cm^−1. The DOSY time and gradient pulse were set at 132 ms (Δ) and 3 ms (δ) respectively. All NMR data were processed using MestReNova 11.0.4 software.

[2] = Circular dichroism of protein secondary structure when bound to CB[7]-PEG; assay type: physicochemical; details: PBS pH 7.4, with CB[7]-PEG, with or without EDTA
Description: After mixing, samples were left to equilibrate for 15 minutes at room temperature. […] circular dichroism spectroscopy was performed at 20° C. with a J-815 CD Spectropolarimeter (Jasco Corporation) over a wavelength range of 185-250 nm using a 0.1 cm pathlength cell.

[3] = according to Webber et al., agitation; cited from earlier work
[4] = In vitro stability: aggregation under stressed conditions by change in transmittance at 540 nm; assay type: physicochemical
Description: These aggregates are large and scatter light, allowing the degree of aggregation to be evaluated by measuring the change in transmittance over time. […] Data shown in FIGS. 2A-2E are the average transmittance trace for n=3 samples per group.
The plate was immediately placed into an plate reader and incubated with continuous shaking 37° C. Absorbance readings were taken every 10 minutes at 540 nm for 100 h (BioTek SynergyH1 microplate reader).
Controls included: (i) NOVOLOG®, (ii) zinc-free NOVOLOG®, (iii) pramlintide (sodium acetate buffer at pH=4), (iv) pramlintide (PBS at pH=7), (v) NOVOLOG®+pramlintide (PBS at pH=7.4).

[5] = given for comparison; cited from earlier work
[6] = reported previously, used for the fit; cited from earlier work

| Compound | diffusion rate D [1] | hydrodynamic radius (Rh) [1] [nm] | effect of CB[7]-PEG binding on protein (secondary) structure [2] | also measured |
| --- | --- | --- | --- | --- |
| insulin aspart | ~1.2×10^−10 m^2 s^−1 | ~2.2 | did not affect protein structure; also recorded: did not alter the secondary structure |  |
| native insulin: recombinant human insulin of Webber et al. |  |  |  | aggregation time (tA), 10% reduction in transmittance [3]: 13.6 ± 0.2 h |
| CC[C@H](C)[C@H](NC(=O)[C@@H]1CCCN1C(=O)CNC(=O)[C@H](Cc1ccccc1)NC(=O)[C@H](CC(N)=O)NC(=O)[C@H](CC(N)=O)NC(=O)[C@H](CO)NC(=O)[C@H](CO)NC(=O)[C@H](Cc1c[nH]cn1)NC(=O)[C@@H](NC(=O)[C@H](CC(C)C)NC(=O)[C@H](Cc1ccccc1)NC(=O)[C@H](CC(N)=O)NC(=O)[C@H](C)NC(=O)[C@H](CC(C)C)NC(=O)[C@H](CCCNC(=N)N)NC(=O)[C@H](CCC(N)=O)NC(=O)[C@@H](NC(=O)[C@H](C)NC(=O)[C@@H]1CSSC[C@H](NC(=O)[C@@H](N)CCCCN)C(=O)N[C@@H](CC(N)=O)C(=O)N[C@@H]([C@@H](C)O)C(=O)N[C@@H](C)C(=O)N[C@@H]([C@@H](C)O)C(=O)N1)[C@@H](C)O)C(C)C)C(=O)N[C@@H](CC(C)C)C(=O)N1CCC[C@H]1C(=O)N1CCC[C@H]1C(=O)N[C@H](C(=O)N[C@@H](CC(N)=O)C(=O)N[C@H](C(=O)NCC(=O)N[C@@H](CO)C(=O)N[C@@H](CC(N)=O)C(=O)N[C@H](C(=O)N[C@@H](Cc1ccc(O)cc1)C(N)=O)[C@@H](C)O)C(C)C)[C@@H](C)O [pramlintide] | ~2×10^−10 m^2 s^−1 | 1.2 | did not affect protein structure; also recorded: no difference in protein secondary structure was observed | ratio of diffusion rates, pramlintide alone to insulin in a standard formulation ([1]; standard formulation): ~2.3; time stable ([4]; pH=4 sodium acetate buffer): over 100 hours; time to aggregation / time stable ([4]; pH=7.4 in PBS, aggregation measured as ~5% change in transmittance at 540 nm): 15 ± 4 h |
| insulin hexamer: hexameric association state of insulin in standard zinc formulations |  |  |  | hydrodynamic radius [5]: approximately 2.8 nm |
| CN(C)c1ccc2cc3ccc(N(C)C)cc3nc2c1 [AO, Acridine Orange] |  |  |  | CB[7]⋅AO equilibrium constant (Keq) [6]: 200000 M⁻¹ |
